Literature values in patent US20230313389A1, “APPARATUS AND METHOD FOR THE ELECTROLYTIC PRODUCTION OF HYPOCHLOROUS ACID” (GROUPE OXWELL INC., priority 2020, published 2023).

Columns and labels:
[1] = test system: viruses, including coronaviruses; conditions: variety of viruses
[2] = under ideal conditions
[3] = as disinfectant

In the case of `OCl` [HOCl, Hypochlorous acid], the “time to inactivate viruses” value [1] is given as “less than 1 minute”, the “shelf life (time HOCl is effective)” value [2] is given as “up to 2 weeks” and the “effectiveness relative to chlorine in the form of ClO-” value [3] is given as 100 times.
